Like-named read-outs stand apart in the source and are kept apart here.
How the values were obtained:
ZIKV = experiment: Plaque assay, anti-ZIKV activity in Vero cells; type: cell-based, Zika virus; conditions: for EC50: read-out: EC50 (anti-ZIKV activity, plaque formation)
Procedure: Initially, the novel acetylarylamine-S-DACOs 4a-z were tested for their cytotoxicity and anti-ZIKV activity in Vero cells by plaque formation according to previously detailed procedure ([Xu et al., 2017]).
Vero cells were inoculated in a 12-well plate at 3 × 10^5 cells/ml and cultured overnight, the medium was discarded and cells were washed with PBS, then the ZIKV (MOI = 0.5) was added to infect at 37°C for 2 h. The cells were washed with PBS, and then a mixture of DMEM supplemented with 4% FBS and 2% low-melting agarose (Amresco, United States) was overlaid on the cells. Next, the cells were fixed with 4% paraformaldehyde for 15 min at 5d post-infection (hpi), washed twice with PBS and stained with 0.8% crystal violet for 10 min. Finally, an enzyme-linked fluorescence spot spectrometer (CTL, United States) was used for image acquisition.

[1] = MTT cytotoxicity assay in Vero cells; type: cell-based, African green monkey; conditions: African green monkey, triplicate, >200 = highest soluble concentration not reaching 50% cytotoxicity
Procedure: (§1) MTT assay was used to detect the toxicity of the compound. Cells were seeded in 96-well plates and cultured overnight. Compounds with different concentrations were added and incubated for 96 h. Then, 20 μl of 5 mg/ml MTT (Sigma-Aldrich, United States) solution was added to each well and kept at 37°C for 4 h. Subsequently, 100 μl of 12% SDS-50% DMF (Sigma-Aldrich, United States) solution was added and incubated overnight at 37°C. After the crystalline formamidine was completely dissolved, the optical density (OD) value was measured using a microplate reader (BioTek, United States) with a wavelength of 570 nm and a reference wavelength of 630 nm.
(§2) The 50% effective concentration (EC50) and 50% cytotoxic concentration (CC50) of the compound were calculated according to the Reed and Muench method, inhibition rate of ZIKV RNA yield- [(1-drug treatment/positive control) × 100]. The data and graphs were processed using GraphPad Prism8 software, expressed as mean ± standard deviation (Mean ± SD), comparison between groups using ANOVA, p < 0.05 was considered statistically significant.

Vero cells = experiment: MTT cytotoxicity assay in Vero cells; type: cell-based, African green monkey; conditions: 96 h, triplicate, >200 = highest soluble concentration not reaching 50% cytotoxicity
Procedure: as §1, §2

HCV = system: HCV; design: method as in Wu et al. (2017); conditions: Figure 3; ref Wu et al. (2017); read-out: EC50 (anti-HCV); cited from earlier work
[2] = Figure 3; ref Wu et al. (2017); cited from earlier work
ZIKV RdRp = target: T1, ZIKV RdRp (Zika virus, UniProt A0A024B7W1); design: method as in Sáez-Álvarez et al., 2019; conditions: positive control drug; ref Sáez-Álvarez et al., 2019; cited from earlier work
T1 construct: we expressed and purified ZIKV RdRp domain; made in house; host or cells: Escherichia coli BL21 (DE3)

[3] = Zika virus, plaque assay, independently in triplicate
[4] = plaque assay, independently in triplicate

T1 sequence (A0A024B7W1 2793-3423): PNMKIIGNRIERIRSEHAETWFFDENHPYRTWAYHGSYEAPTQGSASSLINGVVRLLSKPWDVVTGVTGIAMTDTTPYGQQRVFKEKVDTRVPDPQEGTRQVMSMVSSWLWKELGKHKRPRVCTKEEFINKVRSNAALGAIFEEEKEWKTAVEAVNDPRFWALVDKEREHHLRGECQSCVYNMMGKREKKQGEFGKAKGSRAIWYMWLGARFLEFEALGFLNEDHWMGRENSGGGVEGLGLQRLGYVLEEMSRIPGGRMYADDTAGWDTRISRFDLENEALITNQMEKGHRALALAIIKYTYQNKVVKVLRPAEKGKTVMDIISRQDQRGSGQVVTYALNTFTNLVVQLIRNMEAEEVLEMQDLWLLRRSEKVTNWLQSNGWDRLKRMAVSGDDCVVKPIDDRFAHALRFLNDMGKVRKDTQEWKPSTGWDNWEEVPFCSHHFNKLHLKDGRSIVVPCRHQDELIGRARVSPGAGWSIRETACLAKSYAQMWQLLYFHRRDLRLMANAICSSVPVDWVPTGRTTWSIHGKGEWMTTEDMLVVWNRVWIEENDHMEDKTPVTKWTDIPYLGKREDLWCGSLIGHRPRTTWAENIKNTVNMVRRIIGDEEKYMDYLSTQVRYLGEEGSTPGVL

With CCc1c(C2CCCCC2)nc(SCC(=O)Nc2ccccc2OC)[nH]c1=O [Compound 4a, 2-[(4-cyclohexyl-5-ethyl-6-oxo-1,6-dihydropyrimidin-2-yl)thio]-N-(2-methoxyphenyl)acetamide] the EC50 (ZIKV; [3]) was > 50 µM and the CC50 at 96 h [1] was > 200 µM.

In the case of CCc1c(C2CCCCC2)nc(SCC(=O)Nc2cccc(OC)c2)[nH]c1=O [Compound 4c, 2-[(4-cyclohexyl-5-ethyl-6-oxo-1,6-dihydropyrimidin-2-yl)thio]-N-(3-methoxyphenyl)acetamide], the EC50 (ZIKV; [3]) is reported as > 50 µM, the CC50 at 96 h [1] is reported as 109 ± 3.19 µM and the melting point is reported as 207 to 209 °C.

For CCc1c(C2CCCCC2)nc(SCC(=O)Nc2ccc(OC)cc2)[nH]c1=O [Compound 4e, 2-[(4-cyclohexyl-5-ethyl-6-oxo-1,6-dihydropyrimidin-2-yl)thio]-N-(4-methoxyphenyl)acetamide], the EC50 (ZIKV; [3]) was > 50 µM and the CC50 at 96 h [1] was > 200 µM.

In the case of CCc1c(C2CCCCC2)nc(SCC(=O)Nc2ccccc2F)[nH]c1=O [Compound 4g, 2-[(4-cyclohexyl-5-ethyl-6-oxo-1,6-dihydropyrimidin-2-yl)thio]-N-(2-fluorophenyl)acetamide], the “SI (selectivity index, CC50/EC50 ratio)” value (ZIKV) is reported as >12.27, the EC50 (ZIKV; [3]) is reported as 16.3 ± 1.31 µM and the CC50 at 96 h [1] is reported as > 200 µM. The melting point was 206 to 208 °C.

For CCc1c(C2CCCCC2)nc(SCC(=O)Nc2cccc(F)c2)[nH]c1=O [Compound 4i, 2-[(4-cyclohexyl-5-ethyl-6-oxo-1,6-dihydropyrimidin-2-yl)thio]-N-(3-fluorophenyl)acetamide], the “SI (selectivity index, CC50/EC50 ratio)” value (ZIKV) was >10.33, the EC50 (ZIKV; [3]) was 19.4 ± 0.38 µM and the CC50 at 96 h [1] was > 200 µM. For the same compound, the melting point was 184 to 187 °C.

In the case of CCc1c(C2CCCCC2)nc(SCC(=O)Nc2ccc(F)cc2)[nH]c1=O [Compound 4k, 2-[(4-cyclohexyl-5-ethyl-6-oxo-1,6-dihydropyrimidin-2-yl)thio]-N-(4-fluorophenyl)acetamide], the EC50 (ZIKV; [3]) is reported as > 50 µM, the CC50 at 96 h [1] is reported as > 200 µM and the melting point is reported as 273 to 274 °C.

With CCc1c(C2CCCCC2)nc(SCC(=O)Nc2ccc(F)cc2F)[nH]c1=O [Compound 4s, 2-[(4-cyclohexyl-5-ethyl-6-oxo-1,6-dihydropyrimidin-2-yl)thio]-N-(2,4-difluorophenyl)acetamide] the EC50 (ZIKV; [3]) was > 50 µM, the CC50 at 96 h [1] was > 200 µM and the melting point was 227 to 229 °C.

In the case of CCc1c(C2CCCCC2)nc(SCC(=O)Nc2cc(F)ccc2F)[nH]c1=O [Compound 4u, 2-[(4-cyclohexyl-5-ethyl-6-oxo-1,6-dihydropyrimidin-2-yl)thio]-N-(2,5-difluorophenyl)acetamide], the EC50 (ZIKV; [3]) is reported as > 50 µM, the CC50 at 96 h [1] is reported as > 200 µM and the melting point is reported as 190 to 192 °C.

For CCc1c(CC2CCCCC2)nc(SCC(=O)Nc2cc(F)ccc2OC)[nH]c1=O [Compound 4z, 2-{[4-(cyclohexylmethyl)-5-ethyl-6-oxo-1,6-dihydropyrimidin-2-yl]thio}-N-(5-fluoro-2-methoxyphenyl)acetamide], the “EC50 (anti-ZIKV activity, plaque formation)” value (ZIKV; [4]) was “did not show activity”, the EC50 (ZIKV; [4]) was > 50 µM and the CC50 (Vero cells) was > 200 µM. For the same compound, the melting point was 182 to 183 °C.

In the case of NC(=O)c1ncn([C@@H]2O[C@H](CO)[C@@H](O)[C@H]2O)n1 [Ribavirin, reference compound], the “SI (selectivity index, CC50/EC50 ratio)” value (ZIKV) is reported as >4.09, the EC50 (ZIKV; [3]) is reported as 48.9 ± 3.42 µM and the CC50 at 96 h [1] is reported as > 200 µM.

In the case of CCc1c(CC2CCCCC2)nc(SCC(=O)C(O)c2ccc(F)cc2)[nH]c1=O (stereo not shown) [compound B, reference compound], the EC50 (HCV) is listed as 2.02 µM and the CC50 [2] is listed as 196 µM.

For Heparin, the “inhibition of ZIKV RdRp activity” value (ZIKV RdRp) is given as “significantly inhibited”.

Reference: PMC9605737, “Identification of 6ω-cyclohexyl-2-(phenylamino carbonylmethylthio)pyrimidin-4(3H)-ones targeting the ZIKV NS5 RNA dependent RNA polymerase” (Frontiers in Chemistry, 2022)
